#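 48-hour exposure; five concentrations; linearly interpolated endpoints. GI50 marks 50% less growth. TGI is the concentration that stops growth completely.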
# What was measured:
# Test in all cases: NCI-60 cell line screen, 48 h
# OVCAR-3 ovarian = test system: OVCAR-3 ovarian
# NCI-H226 lung = test system: NCI-H226 lung
# CCRF-CEM leukemia = test system: CCRF-CEM leukemia
# NCI/ADR-RES ovarian = test system: NCI/ADR-RES ovarian
# OVCAR-8 ovarian = test system: OVCAR-8 ovarian
# HOP-92 NSCLC = test system: HOP-92 NSCLC
# NCI-H460 lung = test system: NCI-H460 lung
# PC-3 prostate = test system: PC-3 prostate
# HL-60(TB) leukemia = test system: HL-60(TB) leukemia
# SF-295 CNS = test system: SF-295 CNS
# T-47D breast = test system: T-47D breast
# UO-31 renal = test system: UO-31 renal
# HT29 colon = test system: HT29 colon
# SK-MEL-28 melanoma = test system: SK-MEL-28 melanoma
# BT-549 breast = test system: BT-549 breast
# SN12C renal = test system: SN12C renal
# MOLT-4 leukemia = test system: MOLT-4 leukemia
# MCF7 breast = test system: MCF7 breast
# SF-539 CNS = test system: SF-539 CNS
# NCI-H522 lung = test system: NCI-H522 lung
# KM12 colon = test system: KM12 colon
# HCT-116 colon = test system: HCT-116 colon
# HCC-2998 colon = test system: HCC-2998 colon
# SK-OV-3 ovarian = test system: SK-OV-3 ovarian
# HOP-62 NSCLC = test system: HOP-62 NSCLC
# TK-10 renal = test system: TK-10 renal
# UACC-62 melanoma = test system: UACC-62 melanoma
# SNB-75 CNS = test system: SNB-75 CNS
# RPMI-8226 leukemia = test system: RPMI-8226 leukemia
# OVCAR-4 ovarian = test system: OVCAR-4 ovarian
# K-562 leukemia = test system: K-562 leukemia
# M14 melanoma = test system: M14 melanoma
# ACHN renal = test system: ACHN renal
# UACC-257 melanoma = test system: UACC-257 melanoma
# EKVX NSCLC = test system: EKVX NSCLC
# HCT-15 colon = test system: HCT-15 colon
# LOX IMVI melanoma = test system: LOX IMVI melanoma
# NCI-H23 lung = test system: NCI-H23 lung
# HS 578T breast = test system: HS 578T breast
# MALME-3M melanoma = test system: MALME-3M melanoma
# U251 CNS = test system: U251 CNS
# SR leukemia = test system: SR leukemia
# SNB-19 CNS = test system: SNB-19 CNS
# DU-145 prostate = test system: DU-145 prostate
# CAKI-1 renal = test system: CAKI-1 renal
# SW-620 colon = test system: SW-620 colon
# SK-MEL-2 melanoma = test system: SK-MEL-2 melanoma
# COLO 205 colon = test system: COLO 205 colon
# SK-MEL-5 melanoma = test system: SK-MEL-5 melanoma
# SF-268 CNS = test system: SF-268 CNS
# 786-0 renal = test system: 786-0 renal
# RXF 393 renal = test system: RXF 393 renal
# MDA-MB-468 breast = test system: MDA-MB-468 breast
# IGROV1 ovarian = test system: IGROV1 ovarian
# MDA-MB-231 breast = test system: MDA-MB-231 breast
# OVCAR-5 ovarian = test system: OVCAR-5 ovarian
# MDA-MB-435 = test system: MDA-MB-435
# A498 renal = test system: A498 renal
# A549 NSCLC = test system: A549 NSCLC
compound,measurement,setting,value
OCCCNc1oc(-c2ccccc2)nc1[P+](c1ccccc1)(c1ccccc1)c1ccccc1,GI50,OVCAR-3 ovarian,1.44 µM
same,TGI,OVCAR-3 ovarian,8.15 µM
same,GI50,NCI-H226 lung,2.44 µM
same,TGI,NCI-H226 lung,9.8 µM
same,GI50,CCRF-CEM leukemia,2.46 µM
same,TGI,CCRF-CEM leukemia,13.5 µM
same,GI50,NCI/ADR-RES ovarian,> 100 µM
same,TGI,NCI/ADR-RES ovarian,> 100 µM
same,GI50,OVCAR-8 ovarian,2.84 µM
same,TGI,OVCAR-8 ovarian,10.7 µM
same,GI50,HOP-92 NSCLC,1.24 µM
same,TGI,HOP-92 NSCLC,5.68 µM
same,GI50,NCI-H460 lung,2.61 µM
same,TGI,NCI-H460 lung,11.3 µM
same,GI50,PC-3 prostate,1.6 µM
same,TGI,PC-3 prostate,9 µM
same,GI50,HL-60(TB) leukemia,0.586 µM
same,TGI,HL-60(TB) leukemia,2.9 µM
same,GI50,SF-295 CNS,3.02 µM
same,TGI,SF-295 CNS,10.5 µM
same,GI50,T-47D breast,1.26 µM
same,TGI,T-47D breast,6.72 µM
same,GI50,UO-31 renal,15.7 µM
same,TGI,UO-31 renal,33.2 µM
same,GI50,HT29 colon,2.45 µM
same,TGI,HT29 colon,13.3 µM
same,GI50,SK-MEL-28 melanoma,2.09 µM
same,TGI,SK-MEL-28 melanoma,11 µM
same,GI50,BT-549 breast,1.87 µM
same,TGI,BT-549 breast,6.03 µM
same,GI50,SN12C renal,2.61 µM
same,TGI,SN12C renal,7.59 µM
same,GI50,MOLT-4 leukemia,3.01 µM
same,TGI,MOLT-4 leukemia,12.1 µM
same,GI50,MCF7 breast,1.95 µM
same,TGI,MCF7 breast,8.73 µM
same,GI50,SF-539 CNS,3.86 µM
same,TGI,SF-539 CNS,14.4 µM
same,GI50,NCI-H522 lung,1.76 µM
same,TGI,NCI-H522 lung,7.82 µM
same,GI50,KM12 colon,2.13 µM
same,TGI,KM12 colon,7.15 µM
same,GI50,HCT-116 colon,2.52 µM
same,TGI,HCT-116 colon,15.9 µM
same,GI50,HCC-2998 colon,2.95 µM
same,TGI,HCC-2998 colon,12.8 µM
same,GI50,SK-OV-3 ovarian,2.34 µM
same,TGI,SK-OV-3 ovarian,8.1 µM
same,GI50,HOP-62 NSCLC,3.25 µM
same,TGI,HOP-62 NSCLC,14.5 µM
same,GI50,TK-10 renal,3.62 µM
same,TGI,TK-10 renal,16.3 µM
same,GI50,UACC-62 melanoma,1.38 µM
same,TGI,UACC-62 melanoma,3.85 µM
same,GI50,SNB-75 CNS,1.3 µM
same,TGI,SNB-75 CNS,5.38 µM
same,GI50,RPMI-8226 leukemia,0.41 µM
same,TGI,RPMI-8226 leukemia,10.2 µM
same,GI50,OVCAR-4 ovarian,2.37 µM
same,TGI,OVCAR-4 ovarian,15.7 µM
same,GI50,K-562 leukemia,1.46 µM
same,TGI,K-562 leukemia,11.7 µM
same,GI50,M14 melanoma,3.13 µM
same,TGI,M14 melanoma,17.7 µM
same,GI50,ACHN renal,10.2 µM
same,TGI,ACHN renal,24.8 µM
same,GI50,UACC-257 melanoma,1.98 µM
same,TGI,UACC-257 melanoma,6.1 µM
same,GI50,EKVX NSCLC,2.81 µM
same,TGI,EKVX NSCLC,13.6 µM
same,GI50,HCT-15 colon,13.7 µM
same,TGI,HCT-15 colon,28.1 µM
same,GI50,LOX IMVI melanoma,3.12 µM
same,TGI,LOX IMVI melanoma,12.2 µM
same,GI50,NCI-H23 lung,3.02 µM
same,TGI,NCI-H23 lung,12.5 µM
same,GI50,HS 578T breast,2.25 µM
same,TGI,HS 578T breast,8.21 µM
same,GI50,MALME-3M melanoma,1.57 µM
same,TGI,MALME-3M melanoma,5.38 µM
same,GI50,U251 CNS,2.67 µM
same,TGI,U251 CNS,11.7 µM
same,GI50,SR leukemia,3.43 µM
same,TGI,SR leukemia,16.1 µM
same,GI50,SNB-19 CNS,2.15 µM
same,TGI,SNB-19 CNS,7.25 µM
same,GI50,DU-145 prostate,3.86 µM
same,TGI,DU-145 prostate,16.4 µM
same,GI50,CAKI-1 renal,4.28 µM
same,TGI,CAKI-1 renal,21.7 µM
same,GI50,SW-620 colon,3.29 µM
same,TGI,SW-620 colon,15.2 µM
same,GI50,SK-MEL-2 melanoma,2.49 µM
same,TGI,SK-MEL-2 melanoma,6.46 µM
same,GI50,COLO 205 colon,1.26 µM
same,TGI,COLO 205 colon,4.41 µM
same,GI50,SK-MEL-5 melanoma,1.15 µM
same,TGI,SK-MEL-5 melanoma,2.38 µM
same,GI50,SF-268 CNS,2.76 µM
same,TGI,SF-268 CNS,11.8 µM
same,GI50,786-0 renal,5.72 µM
same,TGI,786-0 renal,20 µM
same,GI50,RXF 393 renal,1.23 µM
same,TGI,RXF 393 renal,5.79 µM
same,GI50,MDA-MB-468 breast,0.337 µM
same,TGI,MDA-MB-468 breast,1.97 µM
same,GI50,IGROV1 ovarian,2.14 µM
same,TGI,IGROV1 ovarian,7.01 µM
same,GI50,MDA-MB-231 breast,1.72 µM
same,TGI,MDA-MB-231 breast,4.84 µM
same,GI50,OVCAR-5 ovarian,3.42 µM
same,TGI,OVCAR-5 ovarian,15.5 µM
same,GI50,MDA-MB-435,2.26 µM
same,TGI,MDA-MB-435,10 µM
same,GI50,A498 renal,10.4 µM
same,TGI,A498 renal,23 µM
same,GI50,A549 NSCLC,5.68 µM
same,TGI,A549 NSCLC,20.3 µM

# From PubChem BioAssay (NCI)
